“And” between values parts separate entries of the source, which are not always exact repeats. Equal values may be shown once. Toxic doses and inconclusive results are not listed.
Tested on: CD2F1 mice, L1210 leukemia ip, survival T/C
Assay: NCI In Vivo Anticancer Drug Screen. Data for tumor model L1210 Leukemia (intraperitoneal) in CD2F1 (CDF1) mice
Details: higher = longer survival
In short: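 Each value reflects a quotient of treated over vehicle control outcomes in mice with a transplanted tumor.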

[1] = endpoint: mean survival time, dose: 100.0 mg/kg/injection, schedule: Q01DX001 (ip), vehicle: saline
[2] = endpoint: mean survival time, dose: 200.0 mg/kg/injection, schedule: Q01DX001 (ip), vehicle: saline
[3] = endpoint: mean survival time, dose: 400.0 mg/kg/injection, schedule: Q01DX001 (ip), vehicle: saline
[4] = endpoint: mean survival time, dose: 50.0 mg/kg/injection, schedule: Q01DX009 (ip), vehicle: saline with Tween-80
[5] = endpoint: mean survival time, dose: 100.0 mg/kg/injection, schedule: Q01DX009 (ip), vehicle: saline with Tween-80
[6] = endpoint: mean survival time, dose: 100.0 mg/kg/injection, schedule: Q04DX003 (ip), vehicle: saline with Tween-80
[7] = endpoint: mean survival time, dose: 200.0 mg/kg/injection, schedule: Q01DX009 (ip), vehicle: saline with Tween-80
[8] = endpoint: mean survival time, dose: 200.0 mg/kg/injection, schedule: Q04DX003 (ip), vehicle: saline with Tween-80
[9] = endpoint: mean survival time, dose: 100.0 mg/kg/injection, schedule: Q01DX001 (ip), vehicle: other
[10] = endpoint: mean survival time, dose: 200.0 mg/kg/injection, schedule: Q01DX001 (ip), vehicle: other
[11] = endpoint: mean survival time, dose: 400.0 mg/kg/injection, schedule: Q01DX009 (ip), vehicle: saline with Tween-80
[12] = endpoint: mean survival time, dose: 400.0 mg/kg/injection, schedule: Q04DX003 (ip), vehicle: saline with Tween-80
[13] = endpoint: mean survival time, dose: 75.0 mg/kg/injection, schedule: Q01DX001 (ip), vehicle: saline
[14] = endpoint: mean survival time, dose: 100.0 mg/kg/injection, schedule: Q01DX001 (ip), vehicle: saline with Tween-80
[15] = endpoint: mean survival time, dose: 200.0 mg/kg/injection, schedule: Q01DX001 (ip), vehicle: saline with Tween-80
[16] = endpoint: mean survival time, dose: 400.0 mg/kg/injection, schedule: Q01DX001 (ip), vehicle: saline with Tween-80

In the case of Cn1c2c(c3ccccc31)CCCC2=O, the T/C [1] is reported as 106 % of control, the T/C [2] is reported as 97 % of control and the T/C [3] is reported as 93 % of control.
For O=CNc1cccc2ccc3cc4ccccc4cc3c12, the T/C [4] was 90 % of control, the T/C [5] was 88 % of control and the T/C [6] was 94 % of control. The T/C [7] was 93 % of control and the T/C [8] was 88 % of control.
In the case of O=C1[C@H]2CCC[C@H]2[C@H]2CCC[C@@H]12, the T/C (endpoint: median survival time, dose: 6.25 mg/kg/injection, schedule: Q01DX009 (ip), vehicle: saline with Tween-80) is reported as 98 % of control, the T/C (endpoint: median survival time, dose: 12.5 mg/kg/injection, schedule: Q01DX009 (ip), vehicle: saline with Tween-80) is reported as 106 % of control and the T/C (endpoint: median survival time, dose: 25.0 mg/kg/injection, schedule: Q01DX009 (ip), vehicle: saline with Tween-80) is reported as 98 % of control. The T/C (endpoint: median survival time, dose: 50.0 mg/kg/injection, schedule: Q01DX009 (ip), vehicle: saline with Tween-80) was 101 % of control, the T/C (endpoint: median survival time, dose: 100.0 mg/kg/injection, schedule: Q01DX009 (ip), vehicle: saline with Tween-80) was 106 % of control and the T/C (endpoint: median survival time, dose: 200.0 mg/kg/injection, schedule: Q01DX009 (ip), vehicle: saline with Tween-80) was 97 % of control.
For COc1cc(C(=O)C[n+]2ccccc2)ccc1O, the T/C [4] was 103 % of control, the T/C [5] was 87 % of control and the T/C [7] was 96 % of control.
Nc1nc(NNC(=O)c2ccccc2)c2nonc2n1 was tested, and the T/C (endpoint: mean survival time, dose: 12.5 mg/kg/injection, schedule: Q01DX005 (ip), vehicle: other) was 95 % of control, the T/C (endpoint: mean survival time, dose: 25.0 mg/kg/injection, schedule: Q01DX005 (ip), vehicle: other) was 95 % of control and the T/C (endpoint: mean survival time, dose: 50.0 mg/kg/injection, schedule: Q01DX005 (ip), vehicle: other) was 91 % of control. For the same compound, the T/C (endpoint: mean survival time, dose: 200.0 mg/kg/injection, schedule: Q01DX005 (ip), vehicle: other) was 91 % of control.
In the case of Nc1ccc(OCCCc2ccccc2)c([N+](=O)[O-])c1, the T/C [9] is reported as 92 % of control and 100 % of control, the T/C [5] is reported as 96 % of control and 102 % of control and the T/C (endpoint: mean survival time, dose: 100.0 mg/kg/injection, schedule: Q04DX002 (ip), vehicle: other) is reported as 98 % of control. For the same compound, the T/C (endpoint: mean survival time, dose: 100.0 mg/kg/injection, schedule: Q04DX003 (ip), vehicle: other) was 98 % of control, the T/C [10] was 93 % of control and 98 % of control and the T/C [7] was 96 % of control and 106 % of control. The T/C (endpoint: mean survival time, dose: 200.0 mg/kg/injection, schedule: Q04DX002 (ip), vehicle: other) was 100 % of control, the T/C (endpoint: mean survival time, dose: 200.0 mg/kg/injection, schedule: Q04DX003 (ip), vehicle: other) was 100 % of control and the T/C [11] was 122 % of control and 93 % of control. The T/C (endpoint: mean survival time, dose: 400.0 mg/kg/injection, schedule: Q04DX002 (ip), vehicle: other) was 102 % of control.
O=C(/C=C/c1ccncc1)c1ccccc1 was tested, and the T/C [5] was 92 % of control, the T/C [6] was 89 % of control and the T/C [7] was 89 % of control. For the same compound, the T/C [8] was 89 % of control, the T/C [11] was 91 % of control and the T/C [12] was 95 % of control.
CCN(CC)N=Nc1ccccc1 was tested, and the T/C [13] was 114 % of control.
In the case of CCSC/C(=N\Nc1ccc([N+](=O)[O-])cc1[N+](=O)[O-])c1ccccc1, the T/C [6] is reported as 109 % of control, the T/C [8] is reported as 109 % of control and the T/C [12] is reported as 102 % of control.
For CC(C)NCC(O)c1ccc(O)c(O)c1 (stereo not given), the T/C (endpoint: mean survival time, dose: 4.0 mg/kg/injection, schedule: Q01DX009 (ip), vehicle: saline) was 101 % of control, the T/C (endpoint: mean survival time, dose: 8.0 mg/kg/injection, schedule: Q01DX009 (ip), vehicle: saline) was 107 % of control and 109 % of control and the T/C (endpoint: mean survival time, dose: 16.0 mg/kg/injection, schedule: Q01DX001 (ip), vehicle: saline) was 96 % of control. For the same compound, the T/C (endpoint: mean survival time, dose: 16.0 mg/kg/injection, schedule: Q01DX009 (ip), vehicle: saline) was 107 % of control and 113 % of control, the T/C (endpoint: mean survival time, dose: 32.0 mg/kg/injection, schedule: Q01DX001 (ip), vehicle: saline) was 100 % of control and the T/C (endpoint: mean survival time, dose: 32.0 mg/kg/injection, schedule: Q01DX009 (ip), vehicle: saline) was 104 % of control and 107 % of control. The T/C (endpoint: mean survival time, dose: 50.0 mg/kg/injection, schedule: Q01DX001 (ip), vehicle: saline) was 95 % of control, the T/C (endpoint: mean survival time, dose: 64.0 mg/kg/injection, schedule: Q01DX001 (ip), vehicle: saline) was 98 % of control and 102 % of control and the T/C (endpoint: mean survival time, dose: 64.0 mg/kg/injection, schedule: Q01DX009 (ip), vehicle: saline) was 121 % of control. For the same compound, the T/C [1] was 104 % of control, the T/C (endpoint: mean survival time, dose: 100.0 mg/kg/injection, schedule: Q01DX009 (ip), vehicle: saline) was 108 % of control and the T/C (endpoint: mean survival time, dose: 128.0 mg/kg/injection, schedule: Q01DX001 (ip), vehicle: saline) was 100 % of control and 105 % of control. The T/C (endpoint: mean survival time, dose: 178.0 mg/kg/injection, schedule: Q01DX009 (ip), vehicle: saline) was 112 % of control, the T/C [2] was 104 % of control and the T/C (endpoint: mean survival time, dose: 200.0 mg/kg/injection, schedule: Q01DX009 (ip), vehicle: saline) was 111 % of control. The T/C (endpoint: mean survival time, dose: 256.0 mg/kg/injection, schedule: Q01DX001 (ip), vehicle: other) was 102 % of control, the T/C (endpoint: mean survival time, dose: 256.0 mg/kg/injection, schedule: Q01DX001 (ip), vehicle: saline) was 105 % of control and the T/C (endpoint: mean survival time, dose: 266.0 mg/kg/injection, schedule: Q01DX009 (ip), vehicle: saline) was 120 % of control. For the same compound, the T/C [3] was 110 % of control, the T/C (endpoint: mean survival time, dose: 400.0 mg/kg/injection, schedule: Q01DX009 (ip), vehicle: saline) was 122 % of control and the T/C (endpoint: mean survival time, dose: 600.0 mg/kg/injection, schedule: Q01DX009 (ip), vehicle: saline) was 112 % of control.
OCC(O)C(O)C(O)C(O)CO (stereo not given) (tested in a mixture with another compound) was tested, and the T/C (endpoint: mean survival time, dose: 37.5 mg/kg/injection, schedule: Q01DX001 (ip), vehicle: saline) was 94 % of control, the T/C [13] was 96 % of control and the T/C [14] was 88 % of control and 104 % of control. For the same compound, the T/C [6] was 93 % of control and 90 % of control, the T/C (endpoint: mean survival time, dose: 150.0 mg/kg/injection, schedule: Q01DX001 (ip), vehicle: saline) was 95 % of control and the T/C [15] was 88 % of control and 98 % of control. The T/C [8] was 95 % of control and 90 % of control, the T/C [16] was 92 % of control and 93 % of control and the T/C [12] was 97 % of control and 92 % of control.
With CC(NC(=O)C(CSCc1ccccc1)NC(=O)OCc1ccccc1)C(=O)OCc1ccccc1 (stereo not given) the T/C [6] was 96 % of control, the T/C [8] was 98 % of control and the T/C [12] was 93 % of control.
With CC(=O)NC(Cc1ccccc1)C(C)=O (stereo not given) the T/C [14] was 102 % of control, the T/C [15] was 98 % of control and the T/C [16] was 102 % of control.
For Cc1c2ccccc2c(CSCC(N)C(=O)O)c2ccccc12 (stereo not given), the T/C [6] was 89 % of control, the T/C [8] was 107 % of control and the T/C [12] was 98 % of control.
For O=C(CN1CCCCC1)NC(=O)NC1=C(N2CCCCC2)C(=O)c2ccccc2C1=O, the T/C [9] was 97 % of control, the T/C [10] was 101 % of control and the T/C (endpoint: mean survival time, dose: 400.0 mg/kg/injection, schedule: Q01DX001 (ip), vehicle: other) was 95 % of control.
With CCOc1ccc(NC(=O)C(C)O)cc1 (stereo not given) the T/C [5] was 95 % of control, the T/C [6] was 103 % of control and the T/C [7] was 101 % of control. For the same compound, the T/C [8] was 97 % of control, the T/C [11] was 107 % of control and the T/C [12] was 97 % of control.
For O=C(CBr)Nc1cc([N+](=O)[O-])ccc1O, the T/C (endpoint: mean survival time, dose: 6.25 mg/kg/injection, schedule: Q01DX009 (ip), vehicle: saline with Tween-80) was 91 % of control and the T/C (endpoint: mean survival time, dose: 12.5 mg/kg/injection, schedule: Q01DX009 (ip), vehicle: saline with Tween-80) was 98 % of control.
In the case of O=C(O)C(O)C(O)C(O)C(O)CO.O=C(O)C(O)C(O)C(O)C(O)CO.[NH-]C1CCCCC1[NH-].[Pt+2] (stereo not given), the T/C (endpoint: mean survival time, dose: 3.13 mg/kg/injection, schedule: Q04DX003 (ip), vehicle: other) is reported as 123 % of control, the T/C (endpoint: mean survival time, dose: 6.25 mg/kg/injection, schedule: Q04DX003 (ip), vehicle: saline) is reported as 119 % of control and the T/C (endpoint: mean survival time, dose: 12.5 mg/kg/injection, schedule: Q04DX003 (ip), vehicle: saline) is reported as 166 % of control. For the same compound, the T/C (endpoint: mean survival time, dose: 25.0 mg/kg/injection, schedule: Q04DX003 (ip), vehicle: other) was 162 % of control, the T/C (endpoint: mean survival time, dose: 25.0 mg/kg/injection, schedule: Q04DX003 (ip), vehicle: saline) was 304 % of control and the T/C (endpoint: mean survival time, dose: 50.0 mg/kg/injection, schedule: Q04DX003 (ip), vehicle: other) was 231 % of control. For the same compound, the T/C (endpoint: mean survival time, dose: 50.0 mg/kg/injection, schedule: Q04DX003 (ip), vehicle: saline) was 281 % of control and 225 % of control and the T/C (endpoint: mean survival time, dose: 100.0 mg/kg/injection, schedule: Q04DX003 (ip), vehicle: saline) was 306 % of control and 280 % of control.
In the case of Nc1cccc(S(=O)(=O)NNc2cc(Cl)ccc2Cl)c1, the T/C [6] is reported as 102 % of control, the T/C [8] is reported as 96 % of control and the T/C [12] is reported as 95 % of control.
With N#C/C(=C\c1cc(Cl)ccc1O)C1CCC([N+](=O)[O-])CC1 (stereo not given) the T/C [5] was 86 % of control, the T/C [7] was 93 % of control and the T/C [11] was 91 % of control.

— PubChem BioAssay AID256 (DTP/NCI, 2004)
